Results taken from patent US12465603B2, “Phthalazinone based modulators for the treatment of disease” (Soley Therapeutics, Inc., priority 2022, dated 2025).

Columns and labels:
[1] = tested on: A2058 (ATCC, CRL-11147) cells; assay: Cell viability assay (Cell Titre Glo, 72 hours) in A2058 cells; assay type: cell-based; settings: Homo sapiens
Summary of the method: (§1)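 10-point dose response, top final concentration 30 μM, 1 in 3 dilutions; 5000 cells per well added directly to compound. Incubated 72 hours at 37° C, 5% CO2, then viability read by Cell Titre Glo luminescence and IC50 curves fitted.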

[2] = tested on: PA1 (ECACC, 90013101) cells; assay: Cell viability assay (Cell Titre Glo, 72 hours) in PA1 cells; assay type: cell-based; settings: Homo sapiens, PA-1
Summary of the method: as §1

SMILES	IC50 [1] [nM]	IC50 [2] [nM]
Cn1nc(C(=O)N2CCN(c3ccc4ccnn4c3)CC2)c2ccccc2c1=O [Compound 203]	> 20000	> 20000
CC(C)c1cncc(N2CCN(C(=O)c3nn(C)c(=O)c4ccccc34)CC2)c1 [Compound 204]	> 20000	> 20000
Cc1cc(C)cc(N2CCN(C(=O)c3nn(C)c(=O)c4ccccc34)CC2)c1 [Compound 205]	≤ 1000	≤ 1000
Cn1nc(C(=O)N2CCN(c3cc(C#N)cc(C4CC4)c3)CC2)c2ccccc2c1=O [Compound 206]	≤ 1000	≤ 1000
CCn1nc(C(=O)N2CCN(c3cccc(C#N)c3)CC2)c2ccccc2c1=O [Compound 207]	≤ 1000	≤ 1000
Cc1cncc(N2CCN(C(=O)c3nn(C)c(=O)c4ccc(F)cc34)CC2)c1C [Compound 208]	1000 to 10000	≤ 1000
CC(C)c1cncc(N2CCN(C(=O)c3nn(C)c(=O)c4ccc(F)cc34)CC2)c1 [Compound 209]	10000 to 20000	10000 to 20000
CCc1cncc(N2CCN(C(=O)c3nn(C)c(=O)c4ccc(F)cc34)CC2)c1 [Compound 210]	1000 to 10000	≤ 1000
Cc1ccc(C#N)cc1N1CCN(C(=O)c2nn(C)c(=O)c3ccc(F)cc23)CC1 [Compound 211]	≤ 1000	≤ 1000
Cn1nc(C(=O)N2CCN(c3cc(F)cc(C#N)c3)CC2)c2cc(F)ccc2c1=O [Compound 212]	≤ 1000	≤ 1000
COc1cc(C#N)cc(N2CCN(C(=O)c3nn(C)c(=O)c4ccc(F)cc34)CC2)c1 [Compound 213]	≤ 1000	≤ 1000
Cc1cc(C#N)cc(N2CCN(C(=O)c3nn(C)c(=O)c4ccncc34)CC2)c1 [Compound 214]	1000 to 10000	≤ 1000
Cc1cc(C)cc(N2CCN(C(=O)c3nn(C)c(=O)c4ccncc34)CC2)c1 [Compound 215]	1000 to 10000	≤ 1000
COc1cc(C#N)cc(N2CCN(C(=O)c3nn(C)c(=O)c4ccncc34)CC2)c1 [Compound 216]	≤ 1000	≤ 1000
COc1cc(C)cc(N2CCN(C(=O)c3nn(C)c(=O)c4ccncc34)CC2)c1 [Compound 217]	≤ 1000	≤ 1000
Cn1nc(C(=O)N2CCN(c3cc(Cl)cc(Cl)c3)CC2)c2cnccc2c1=O [Compound 218]	≤ 1000	≤ 1000
Cn1nc(C(=O)N2CCN(c3cccc(C#N)c3)CC2)c2cnccc2c1=O [Compound 219]	1000 to 10000	1000 to 10000
Cn1nc(C(=O)N2CCN(c3cc(F)cc(C#N)c3)CC2)c2cnccc2c1=O [Compound 220]	1000 to 10000	1000 to 10000
Cc1cc(Cl)cc(N2CCN(C(=O)c3nn(C)c(=O)c4ccncc34)CC2)c1 [Compound 221]	≤ 1000	≤ 1000
Cn1nc(C(=O)N2CCN(c3cc(F)cc(Cl)c3)CC2)c2cnccc2c1=O [Compound 222]	≤ 1000	≤ 1000
Cn1nc(C(=O)N2CCN(c3cc(Cl)cc(C#N)c3)CC2)c2cnccc2c1=O [Compound 223]	1000 to 10000	≤ 1000
COc1cc(C#N)cc(N2CCN(C(=O)c3nn(C)c(=O)c4ccccc34)CC2)c1 [Compound 224, 3-methoxy-5-(4-(3-methyl-4-oxo-3,4-dihydrophthalazine-1-carbonyl)piperazin-1-yl)benzonitrile]	≤ 1000	≤ 1000
Cn1nc(C(=O)N2CCN(c3cc(Cl)cc(C#N)c3)CC2)c2ccccc2c1=O [Compound 225]	≤ 1000	≤ 1000
Cn1nc(C(=O)N2CCN(c3cncc(C#N)c3)CC2)c2ccccc2c1=O [Compound 226]	> 20000	> 20000

SMILES	IC50 [1] [nM]	IC50 [2] [nM]
Cn1nccc1N1CCN(C(=O)c2nn(C)c(=O)c3ccccc23)CC1 [Compound 227]	> 20000	> 20000
Cn1nc(C(=O)N2CCN(c3cccc(C#N)n3)CC2)c2ccccc2c1=O [Compound 228]	10000 to 20000	1000 to 10000
Cn1nc(C(=O)N2CCN(c3cc(C#N)ccc3Cl)CC2)c2ccccc2c1=O [Compound 229, 4-chloro-3-(4-(3-methyl-4-oxo-3,4-dihydrophthalazine-1-carbonyl)piperazin-1-yl)benzonitrile]	≤ 1000	≤ 1000
Cn1nc(C(=O)N2CCN(c3cc(C#N)cc(C#N)c3)CC2)c2ccccc2c1=O [Compound 230, 5-(4-(3-methyl-4-oxo-3,4-dihydrophthalazine-1-carbonyl)piperazin-1-yl)isophthalonitrile]	1000 to 10000	≤ 1000
Cn1nc(C(=O)N2CCN(c3cccc4nccn34)CC2)c2ccccc2c1=O [Compound 231, 4-(4-(imidazo[1,2-a]pyridin-5-yl)piperazine-1-carbonyl)-2-methylphthalazin-1(2H)-one]	> 20000	> 20000
Cn1nc(C(=O)N2CCN(c3cnccc3C3CC3)CC2)c2cc(F)ccc2c1=O [Compound 232, 4-(4-(4-cyclopropylpyridin-3-yl)piperazine-1-carbonyl)-6-fluoro-2-methylphthalazin-1(2H)-one]	≤ 1000	≤ 1000
COc1c(F)cncc1N1CCN(C(=O)c2nn(C)c(=O)c3ccc(F)cc23)CC1 [Compound 233]	1000 to 10000	≤ 1000
Cn1nc(C(=O)N2CCN(c3cncc(C#N)c3)CC2)c2cc(F)ccc2c1=O [Compound 234, 5-(4-(7-fluoro-3-methyl-4-oxo-3,4-dihydrophthalazine-1-carbonyl)piperazin-1-yl)nicotinonitrile]	> 20000	> 20000
Cc1cc(C#N)cc(N2CCN(C(=O)c3nn(C)c(=O)c4ccc(F)cc34)CC2)c1 [Compound 235]	≤ 1000	≤ 1000
CCn1nc(C(=O)N2CCN(c3cnccc3OC)CC2)c2cc(F)ccc2c1=O [Compound 236, 2-ethyl-6-fluoro-4-(4-(4-methoxypyridin-3-yl)piperazine-1-carbonyl)phthalazin-1(2H)-one]	≤ 1000	≤ 1000
CCn1nc(C(=O)N2CCN(c3cc(Cl)cc(C#N)c3)CC2)c2cc(F)ccc2c1=O [Compound 237]	≤ 1000	≤ 1000
CCn1nc(C(=O)N2CCN(c3cncc(C)c3)CC2)c2cc(F)ccc2c1=O [Compound 238]	≤ 1000	≤ 1000
CCn1nc(C(=O)N2CCN(c3cc(F)cc(C#N)c3)CC2)c2cc(F)ccc2c1=O [Compound 239]	≤ 1000	≤ 1000
CCn1nc(C(=O)N2CCN(c3cccc(C#N)c3)CC2)c2cc(F)ccc2c1=O [Compound 240]	≤ 1000	≤ 1000
CCn1nc(C(=O)N2CCN(c3cc(F)cc(C#N)c3)CC2)c2cnccc2c1=O [Compound 241, 3-(4-(2-ethyl-1-oxo-1,2-dihydropyrido[3,4-d]pyridazine-4-carbonyl)piperazin-1-yl)-5-fluorobenzonitrile]	≤ 1000	≤ 1000
CCn1nc(C(=O)N2CCN(c3cc(C#N)ccc3C3CC3)CC2)c2cnccc2c1=O [Compound 242]	≤ 1000	≤ 1000
CCn1nc(C(=O)N2CCN(c3cnccc3OC)CC2)c2cnccc2c1=O [Compound 243]	1000 to 10000	≤ 1000
CCn1nc(C(=O)N2CCN(c3cc(Cl)cc(C#N)c3)CC2)c2cnccc2c1=O [Compound 244]	≤ 1000	≤ 1000
Cc1cncc(N2CCN(C(=O)c3nn(C)c(=O)c4ccc(Cl)cc34)CC2)c1 [Compound 245, 6-chloro-2-methyl-4-(4-(5-methylpyridin-3-yl)piperazine-1-carbonyl)phthalazin-1(2H)-one]	> 20000	10000 to 20000
COc1ccncc1N1CCN(C(=O)c2nn(C)c(=O)c3ccc(Cl)cc23)CC1 [Compound 246, 6-chloro-4-(4-(4-methoxypyridin-3-yl)piperazine-1-carbonyl)-2-methylphthalazin-1(2H)-one]	1000 to 10000	≤ 1000
COc1ccccc1C1=CCN(C(=O)c2nn(C)c(=O)c3ccccc23)CC1 [Compound 247, 4-(4-(2-methoxyphenyl)-1,2,3,6-tetrahydropyridine-1-carbonyl)-2-methylphthalazin-1(2H)-one]	≤ 1000	≤ 1000
COc1ccc(C2(C)CCN(C(=O)c3nn(C)c(=O)c4ccccc34)CC2)cc1 [Compound 248, 4-(4-(4-methoxyphenyl)-4-methylpiperidine-1-carbonyl)-2-methylphthalazin-1(2H)-one]	1000 to 10000	10000 to 20000
COc1ccccc1C1(C)CCN(C(=O)c2nn(C)c(=O)c3ccccc23)CC1 [Compound 249, 4-(4-(2-methoxyphenyl)-4-methylpiperidine-1-carbonyl)-2-methylphthalazin-1(2H)-one]	1000 to 10000	1000 to 10000
